# Reference: patent US20150126467A1, “USE OF ALGINATE OLIGOMERS TO ENHANCE THE EFFECTS OF ANTIFUNGAL AGENTS” (AlgiIPharma AS, priority 2011, published 2015)
# Test system: various Candida species and strains
# Assay: Robotic MIC assay, summary over all strains (Example 2)
# Format: cell-based
# Settings: all species and strains tested
# Method: The robotic assay described in Example 1 was employed in this Example. Strains were grown in Mueller-Hinton broth (LAB114 from Lab M Limited) and MIC values (μg ml-1) were determined for each antifungal after incubation for 48 h in the presence of 0, 2, 6 and 10% OligoG CF-5/20 G-fragments. […] OligoG CF-5/20 G-fragments were provided by AlgiPharma AS, Norway.
# Candida strains used were as follows: • C. albicans CCUG 39343 (strain from culture collection) • C. parapsillosis ATCC 22019T (strain from culture collection) • C. krusei 141/03 (candidosis) • C. krusei 249/03(2) (ulceration) • C. lusitaniae 994/01(2) (candidosis) • C. tropicalis 12 (vaginal) • C. tropicalis 75 (vaginal) • C. tropicalis 519468 (urinary) • C. tropicalis 544123 (urinary) • C. tropicalis 250/03 (candidosis) • C. tropicalis AG1 (oral) • C. tropicalis T2.2 (oral)
compound,measurement,value
"C[C@@H]1[C@H](O)[C@@H](C)/C=C/C=C/CC/C=C/C=C/C=C/C=C/C(O[C@H]2O[C@H](C)[C@@H](O)[C@H](N)[C@@H]2O)CC2O[C@](O)(CC(O)C(O)CCC(O)CC(O)CC(O)CC(=O)O[C@H]1C)CC(O)C2C(=O)O (stereo partly shown) [Nystatin, nystatin]",effect of addition of OligoG CF-5/20 on MIC values,reduced
